In brackets after ≈: the same amount, converted by molar mass.
Assays:
dengue virus type 2 [1] = assay: Antiviral activity against DENV-2 16681 expressing eGFP infected in african green monkey Vero cells incubated with cells for 24 hrs followed by viral infection measured after 3 days by laser microscopic analysis; format: functional, organism-based
[2] = Microsomal stability in human liver microsomes assessed as intrinsic clearance preincubated for 5 mins followed by NADPH addition measured upto 60 mins by LC-MS/MS analysis; format: ADME, Microsome; settings: time < 65 min, read-out: CLH
[3] = Microsomal stability in rat liver microsomes assessed as intrinsic clearance preincubated for 5 mins followed by NADPH addition measured upto 60 mins by LC-MS/MS analysis; format: ADME, Microsome; settings: time < 65 min, read-out: CLH
[4] = Microsomal stability in mouse liver microsomes assessed as intrinsic clearance preincubated for 5 mins followed by NADPH addition measured upto 60 mins by LC-MS/MS analysis; format: ADME, Microsome; settings: time < 65 min, read-out: CLH
[5] = Cytotoxicity against african green monkey Vero cells by ATPlite cell viability luminescence assay; format: toxicity, cell-based; settings: chlorocebus sabaeus
[6] = AUC last in Sprague-Dawley rat at 10 mg/kg, po measured upto 24 to 48 hrs by LC-MS/MS analysis; format: ADME, organism-based; parameters: time upper 48 hrs, dose 10 mg/kg, time lower 24 hrs, route po; settings: in vivo
[7] = Half life in Sprague-Dawley rat at 2.5 mg/kg, iv measured by LC-MS/MS analysis; format: ADME, organism-based; settings: in vivo
[8] = Cmax in Sprague-Dawley rat at 10 mg/kg, po measured upto 24 to 48 hrs by LC-MS/MS analysis; format: ADME, organism-based; parameters: time upper 48 hrs, dose 10 mg/kg, time lower 24 hrs, route po; settings: in vivo
[9] = Kinetic solubility of the compound in aqueous buffer at pH 4 measured after 4 hrs by UPLC/UV analysis; format: physicochemical; settings: read-out: Kinetic_solubility
[10] = Volume of distribution at steady state in Sprague-Dawley rat at 2.5 mg/kg, iv measured upto 24 hrs by LC-MS/MS analysis; format: ADME, organism-based; settings: in vivo, read-out: Vdss
[11] = Clearance in Sprague-Dawley rat at 2.5 mg/kg, iv measured upto 24 hrs by LC-MS/MS analysis; format: ADME, organism-based; settings: in vivo
[12] = Kinetic solubility of the compound in aqueous buffer at pH 7.4 measured after 4 hrs by UPLC/UV analysis; format: physicochemical; settings: read-out: Kinetic_solubility
[13] = Oral bioavailability in Sprague-Dawley rat at 10 mg/kg measured upto 24 to 48 hrs by LC-MS/MS analysis; format: ADME, organism-based; settings: in vivo, time 24-48 hrs
[14] = Kinetic solubility of the compound in aqueous buffer at pH 2 measured after 4 hrs by UPLC/UV analysis; format: physicochemical; settings: read-out: Kinetic_solubility
dengue virus type 2 [15] = assay: In vivo antiviral activity against DENV-2/RL infected in AG129 mouse assessed as viral load reduction administered at 3 to 30 mg/kg, po bid for 3 days; format: functional, organism-based; settings: dose 3-30 mg/kg, time 3.0 day
dengue virus type 4 = assay: Antiviral activity against DENV-4 H241 infected in african green monkey Vero cells incubated for 24 hrs measured after 3 days post infection; format: functional, organism-based; settings: Dengue virus, H241, Vero
[16] = Clearance in CD-1 mouse at 2.5 mg/kg, iv measured for 0.12 to 24 hrs by LC-MS/MS analysis; format: ADME, organism-based; settings: in vivo, time 0.12-24 hrs
dengue virus type 3 = assay: Antiviral activity against DENV-3 H87 infected in african green monkey Vero cells incubated for 24 hrs measured after 3 days post infection; format: functional, organism-based
dengue virus type 2 [17] = assay: Antiviral activity against DENV-2 16681 infected in african green monkey Vero cells incubated for 24 hrs measured after 3 days post infection; format: functional, organism-based; settings: Dengue virus, 16681, Vero
dengue virus type 1 = assay: Antiviral activity against DENV-1 TC974#666 infected in african green monkey Vero cells incubated for 24 hrs measured after 3 days post infection; format: functional, organism-based; settings: TC974#666, Vero

In the case of `COc1cc(NC(C(=O)c2c[nH]c3cc(F)c(F)cc23)c2ccc(F)cc2OC)cc(OCCO)c1` (single isomer, unassigned; (+)), the EC50 (dengue virus type 2 [1]; Dengue virus, 16681, Vero) is reported as 3 nM, the microsomal CLint [2] is reported as < 8 µL/min/mg and the microsomal CLint [3] is reported as 44 µL/min/mg. It also gave a microsomal CLint [4] of 10 µL/min/mg and a CC50 [5] of 6900 nM.

Work on `COc1cc(NC(C(=O)c2c[nH]c3cc(F)ccc23)c2ccc(F)cc2)cc(OCCO)c1` (single isomer, unassigned; (+)) yielded an EC50 (dengue virus type 2 [1]; vero) of 11 nM.

With `COc1cc(NC(C(=O)c2c[nH]c3cc(OC)c(C)cc23)c2ccc(F)cc2OC)cc(OCCO)c1` (single isomer, unassigned; (+)) the EC50 (dengue virus type 2 [1]; Dengue virus, 16681, Vero) was 3 nM, the AUC(0-t) [6] was 4660 ng·h/mL and the half-life [7] was 5.7 h. For the same compound, the microsomal CLint [2] was < 8 µL/min/mg, the Cmax [8] was 350 ng/mL and the solubility kinetic at 4 h [9] was 5 µM (≈ 2.54 µg/mL). The Vd [10] was 6.5 L/kg, the microsomal CLint [3] was < 8 µL/min/mg and the clearance [11] was 13.6 mL/min/kg. For the same compound, the microsomal CLint [4] was < 8 µL/min/mg, the CC50 [5] was 7400 nM and the solubility kinetic at 4 h [12] was 5 µM (≈ 2.54 µg/mL). For the same compound, the bioavailability [13] was 40% and the solubility kinetic at 4 h [14] was 65 µM (≈ 33.1 µg/mL).

`COc1cc(NC(C(=O)c2c[nH]c3c(F)cc(C)cc23)c2ccc(F)cc2OC)cc(OCCO)c1` (single isomer, unassigned; (+)) showed an EC50 (dengue virus type 2 [1]; Dengue virus, 16681, Vero) of 5 nM, a microsomal CLint [2] of 10 µL/min/mg and a microsomal CLint [3] of 13 µL/min/mg. It also gave a microsomal CLint [4] of 10 µL/min/mg and a CC50 [5] of 5500 nM.

In the case of `COc1cc(NC(C(=O)c2c[nH]c3c(C)c(F)ccc23)c2ccc(F)cc2OC)cc(OCCO)c1` (single isomer, unassigned; (+)), the EC50 (dengue virus type 2 [1]; Dengue virus, 16681, Vero) is reported as 2 nM, the AUC(0-t) [6] is reported as 8290 ng·h/mL and the half-life [7] is reported as 6.5 h. The microsomal CLint [2] was < 8 µL/min/mg, the Cmax [8] was 573 ng/mL and the solubility kinetic at 4 h [9] was 3 µM (≈ 1.49 µg/mL). For the same compound, the Vd [10] was 8.5 L/kg, the microsomal CLint [3] was < 8 µL/min/mg and the clearance [11] was 16.4 mL/min/kg. The microsomal CLint [4] was < 8 µL/min/mg, the CC50 [5] was 5300 nM and the solubility kinetic at 4 h [12] was 2 µM (≈ 0.993 µg/mL). The bioavailability [13] was 88% and the solubility kinetic at 4 h [14] was 34 µM (≈ 16.9 µg/mL).

With `COc1cc(NC(C(=O)c2c[nH]c3cc(OC)c(F)cc23)c2ccc(F)cc2OC)cc(OCCO)c1` (single isomer, unassigned; (+)) the EC50 (dengue virus type 2 [1]; Dengue virus, 16681, Vero) was 5 nM, the microsomal CLint [2] was < 8 µL/min/mg and the microsomal CLint [3] was < 8 µL/min/mg. The microsomal CLint [4] was < 8 µL/min/mg and the CC50 [5] was > 8600 nM.

Compound `COc1cc(NC(C(=O)c2c[nH]c3c(C)c(Cl)ccc23)c2ccc(F)cc2OC)cc(OCCO)c1` (single isomer, unassigned; (+)) has an EC50 (dengue virus type 2 [1]; Dengue virus, 16681, Vero) of 1 nM, an AUC(0-t) [6] of 7600 ng·h/mL and a half-life [7] of 7 h. For the same compound, the microsomal CLint [2] was < 8 µL/min/mg, the Cmax [8] was 294 ng/mL and the solubility kinetic at 4 h [9] was < 0.1 µM. The Vd [10] was 6.5 L/kg, the microsomal CLint [3] was < 8 µL/min/mg and the clearance [11] was 10.7 mL/min/kg. The microsomal CLint [4] was < 8 µL/min/mg, the CC50 [5] was 4100 nM and the solubility kinetic at 4 h [12] was < 0.1 µM. For the same compound, the bioavailability [13] was 54% and the solubility kinetic at 4 h [14] was 5 µM (≈ 2.56 µg/mL).

For `COc1cc(NC(C(=O)c2c[nH]c3c(C)c(OC)ccc23)c2ccc(F)cc2OC)cc(OCCO)c1` (single isomer, unassigned; (+)), the EC50 (dengue virus type 2 [1]; Dengue virus, 16681, Vero) was 1 nM, the microsomal CLint [2] was < 8 µL/min/mg and the microsomal CLint [3] was 17 µL/min/mg. The microsomal CLint [4] was < 8 µL/min/mg and the CC50 [5] was 8900 nM.

With `COc1cc(NC(C(=O)c2c[nH]c3cc(F)ccc23)c2ccc(Cl)cc2OC)cc(OCCO)c1` (single isomer, unassigned; (+)) the Activity (dengue virus type 2 [15]) was “Dose-Dependent Effect”.

In the case of `COc1cc(NC(C(=O)c2c[nH]c3cc(F)ccc23)c2ccc(F)cc2Cl)cc(OCCO)c1` (single isomer, unassigned; (-)), the EC50 (dengue virus type 2 [1]; Dengue virus, 16681, Vero) is reported as 6 nM and the CC50 [5] is reported as 8200 nM.

For `COc1cc(NC(C(=O)c2c[nH]c3cc(F)ccc23)c2ccc(F)cc2)cc(OCCO)c1` (stereo in doubt), the EC50 (dengue virus type 4) was 870 nM, the clearance [16] was 37.1 mL/min/kg and the EC50 (dengue virus type 2 [1]; vero) was 15 nM. The AUC(0-t) [6] was 4370 ng·h/mL, the half-life [7] was 6 h and the microsomal CLint [2] was < 8 µL/min/mg. For the same compound, the Cmax [8] was 295 ng/mL, the Vd [10] was 7.3 L/kg and the microsomal CLint [3] was < 8 µL/min/mg. The EC50 (dengue virus type 3) was 420 nM, the clearance [11] was 13.9 mL/min/kg and the microsomal CLint [4] was 26 µL/min/mg. For the same compound, the CC50 [5] was 13000 nM, the EC50 (dengue virus type 2 [17]) was 12 nM and the bioavailability [13] was 40%. For the same compound, the EC50 (dengue virus type 1) was 49 nM.

`COc1cc(NC(C(=O)c2c[nH]c3cc(F)ccc23)c2ccc(Cl)cc2OC)cc(OCCO)c1` (stereo in doubt; 24) showed an EC50 (dengue virus type 4) of 360 nM and an EC50 (dengue virus type 2 [17]) of 1 nM.

In the case of `COc1cc(NC(C(=O)c2c[nH]c3cc(F)ccc23)c2ccc(F)cc2)cc(OCCO)c1` (stereo in doubt; (-)-7b), the EC50 (dengue virus type 2 [1]; vero) is reported as 93 nM.

— ChEMBL document CHEMBL5331131, “Discovery of Acyl-Indole Derivatives as Pan-Serotype Dengue Virus NS4B Inhibitors” (J Med Chem, 2023)
